According to patent US10130616B2, “Securinine and norsecurinine analogue compounds for the treatment of myeloid disorders” (Case Western Reserve University, priority 2013, dated 2018):
Read-outs that look alike come from different tables or passages of the source.

Key:
HL-60 cells = experiment: Growth of HL-60 cells (IC50); format: cell-based, human; conditions: for IC50: value bracketed between tested concentrations
HL-60 leukemic cells = experiment: Nitroblue Tetrazolium (NBT) reduction assay, differentiation of HL-60 leukemic cells; format: cell-based, human; conditions: Homo sapiens
Source text: In an aspect of the present disclosure, the compounds of the disclosure can be identified using a novel high-throughput screen that is biased to identify agents that have both a high potency and low toxicity in a myeloid disorder disease model, such as an animal or cell model. In some embodiments, the high-throughput screen measures the differentiation of HL-60 leukemic cells using a quantitative nitroblue tetrazolium (NBT) reduction assay. Screening HL-60 cells, human promyelocytic cells, is advantageous as they have been used extensively as a cell line to study myeloid differentiation. Though promyelocytic cells, HL-60 cells were derived from a patient with acute myeloblastic leukemia with maturation, FAB-M2.
This technique has also been widely exploited in HL-60 cells to analyze myelomonocytic differentiation.
The NBT screen works due to changes in the oxidoreductases during differentiation that lead to increases in rates of NBT reduction. NBT is reduced due to the production of superoxide that is catalyzed by an NADPH oxidase. […] NBT is reduced by superoxide from a soluble yellow compound to insoluble blue formazan granules whose formation can be monitored spectrophotometrically at 560 nm as the unreduced dye has minimal absorbance at this wavelength. A quantitative NBT reduction assay is ideal for this type of screen as it is simple, sensitive, quantitative, requires minimal cells, has been proven to have low well to well variability, and the amount of reduced NBT is proportional to the number of cells reducing the dye as well as the amount reduced by each cell.
To discover novel AML differentiation-inducing compounds a rapid high-throughput screen (HTS) was developed and optimized. The screen was designed to be biased to identify compounds that, unlike the majority of known differentiation-inducing agents, have both high potency and low toxicity. The screen measured the differentiation of HL-60 leukemic cells using a quantitative Nitroblue Tetrazolium (NBT) reduction assay, a test that is used extensively as a measure of functional myelomonocytic differentiation. The basis for the screen is unreduced NBT exists as a yellow soluble dye. Differentiated leukemic cells are capable of producing a respiratory burst that can reduce NBT into a blue insoluble compound that can be measured spectrophotometrically. This forward chemical genetics approach allowed the discovery of novel compounds that can act on targets not previously known to be “drugable.” As only live cells can reduce NBT, the screen is biased in identifying relatively nontoxic compounds.
To perform the screen, duplicate plates of HL-60 cells were cultured at a density of 5×10^4 cells/mL with 10 μM of each compound in 96 well plates for 5 days. To determine the relative capability for a compound to induce differentiation compared to known potent inducers, each plate destined for the NBT reduction assay included wells with 0.1% DMSO (vehicle control) and 1 μM ATRA. This approach eliminates any slight day to day variation in NBT reduction values and allows the discovery of compounds with similar or greater efficacy to ATRA. Differentiation was determined in the 96 well plates by incubating the cells with 1 mg/mL of NBT and 200 ng/mL of PMA as the stimulant for the respiratory burst for 35 minutes at 37° C. The reaction was then stopped with HCl and the formazan solubilized with DMSO. Finally, the reaction mixture was read spectrophotometrically at 560 nm in a plate reader.
The securinine and norsecurinine analogues were tested and evaluated on their abilities to affect differentiation and growth of HL-60 cells (Table 1).

[1] = Homo sapiens, HL-60, HL-60 cells, read-out: HL-60, IC50
[2] = HL-60 cells, value bracketed between tested concentrations, read-out: HL-60, Dif50

| SMILES | IC50 (HL-60 cells; [1]) | further results |
| --- | --- | --- |
| COC(OC)[C@H]1CC[C@H]2N1[C@@H]1C=C(I)C3=CC(=O)O[C@@]32C1 [Compound 1] |  | 100% Death (HL-60 cells; HL-60 cells, concentration giving 100% death): 100% Death <2.5 |
| COC(OC)[C@H]1CC[C@H]2N1[C@@H]1C=CC3=CC(=O)O[C@@]32C1 [Compound 2] |  | EC50 (HL-60 leukemic cells; HL-60, read-out: HL-60, Dif50): 3.25 to 5 µM |
| CCCCC1=C[C@@H]2C[C@@]3(OC(=O)C=C13)[C@H]1CCCCN21 [Compound 4] | 3 to 4 µM |  |
| CC(C)(C)c1ccc(C2=C[C@@H]3C[C@@]4(OC(=O)C=C24)[C@H]2CCCCN32)cc1 [Compound 5] | 20 to 30 µM |  |
| O=C1C=C2C(c3cc(C(F)(F)F)cc(C(F)(F)F)c3)=C[C@@H]3C[C@@]2(O1)[C@H]1CCCCN31 [Compound 6] | 15 to 20 µM |  |
| O=C1C=C2C(c3cc(Br)cc(Br)c3)=C[C@@H]3C[C@@]2(O1)[C@H]1CCCCN31 [Compound 7] | 15 to 20 µM |  |
| C[N+]12CCCC[C@@H]1[C@]13C[C@H]2C=CC1=CC(=O)O3 (stereo partly drawn) [Compound 8] |  | EC50 (HL-60 leukemic cells; [2]): > 30 µM |
| C[N+]12CCCC[C@@H]1[C@]13C[C@H]2C=C(I)C1=CC(=O)O3 (stereo partly drawn) [Compound 9] | 5 to 7.5 µM |  |
| O=C1C=C2C(I)=C[C@@H]3C[C@@]2(O1)[C@H]1CCCCN31 [Compound 13] |  | IC50 (HL-60 cells; read-out: HL-60, IC50, HL-60 cells): < 2.5 µM |
| O=C1C=C2C(I)=C[C@@H]3C[C@@]2(O1)[C@H]1CCCCN31 [Compound 14] |  | EC50 (HL-60 leukemic cells; HL-60, read-out: HL-60, Dif50): 0.5 to 0.75 µM |
| CC(C)CC#CC1=C[C@@H]2C[C@@]3(OC(=O)C=C13)[C@H]1CCCCN21 [Compound 16] | 1.25 to 2.5 µM |  |
| O=C1C=C2C(C#CC3CCCC3)=C[C@@H]3C[C@@]2(O1)[C@H]1CCCCN31 [Compound 19] | 0.31 to 0.625 µM |  |
| CCCCC#CC1=C[C@@H]2C[C@@]3(OC(=O)C=C13)[C@H]1CCCCN21 [Compound 20] | 2.5 µM |  |
| CC(C)(C)C#CC1=C[C@@H]2C[C@@]3(OC(=O)C=C13)[C@H]1CCCCN21 [Compound 23] | 1.25 to 2.5 µM |  |
| O=C1C=C2C(C#CCC3CCCC3)=C[C@@H]3C[C@@]2(O1)[C@H]1CCCCN31 [Compound 24] | 1.25 to 2.5 µM |  |
| O=C1C=C2C(C#CC3CC3)=C[C@@H]3C[C@@]2(O1)[C@H]1CCCCN31 [Compound 25] | 1.25 to 2.5 µM |  |
| CC(C)[Si](OCC#CC1=C[C@@H]2C[C@@]3(OC(=O)C=C13)[C@H]1CCCCN21)(C(C)C)C(C)C [Compound 27] |  | IC50 (HL-60 cells; Homo sapiens, HL-60, read-out: HL-60, IC50, HL-60 cells): 0.625 to 1.25 µM |
| O=C1C=C2C(C#Cc3ccc(F)cc3)=C[C@@H]3C[C@@]2(O1)[C@H]1CCCCN31 [Compound 30] | 0.31 to 0.625 µM |  |
| CC(C)(C)c1ccc(C#CC2=C[C@@H]3C[C@@]4(OC(=O)C=C24)[C@H]2CCCCN32)cc1 [Compound 32] | 1.25 µM |  |
| O=C1C=C2C(C#CCOc3ccccc3)=C[C@@H]3C[C@@]2(O1)[C@H]1CCCCN31 [Compound 33] | 0.625 to 1.25 µM |  |
| O=C1C=C2C(C#CCOCc3ccccc3)=C[C@@H]3C[C@@]2(O1)[C@H]1CCCCN31 [Compound 34] | 1.25 to 2.5 µM |  |
| O=C1C=C2C(C#Cc3cc(F)cc(F)c3)=C[C@@H]3C[C@@]2(O1)[C@H]1CCCCN31 [Compound 37] | 5 to 10 µM |  |
| Cc1ccccc1C#CC1=C[C@@H]2C[C@@]3(OC(=O)C=C13)[C@H]1CCCCN21 [Compound 38] | 1.25 to 2.5 µM |  |
| CCOC(C#CC1=C[C@@H]2C[C@@]3(OC(=O)C=C13)[C@H]1CCCCN21)OCC [Compound 44] | 2.5 to 5 µM |  |
| CC(C)(C)OCC#CC1=C[C@@H]2C[C@@]3(OC(=O)C=C13)[C@H]1CCCCN21 [Compound 45] | 1.25 to 2.5 µM |  |
| CCc1ccc(C#CC2=C[C@@H]3C[C@@]4(OC(=O)C=C24)[C@H]2CCCCN32)cc1 [Compound 49] | 0.31 to 0.625 µM |  |
| CCCCc1ccc(C#CC2=C[C@@H]3C[C@@]4(OC(=O)C=C24)[C@H]2CCCCN32)cc1 [Compound 50] | 0.625 to 1.25 µM |  |
| O=C1C=C2C(C#Cc3ccc(-c4ccccc4)cc3)=C[C@@H]3C[C@@]2(O1)[C@H]1CCCCN31 [Compound 51] | < 0.07 µM |  |
| O=C1C=C2C(C#Cc3cccs3)=C[C@@H]3C[C@@]2(O1)[C@H]1CCCCN31 [Compound 52] | 0.07 to 0.156 µM |  |
| Nc1ccc(C#CC2=C[C@@H]3C[C@@]4(OC(=O)C=C24)[C@H]2CCCCN32)cc1 [Compound 53] |  | EC50 (HL-60 leukemic cells; [2]): 0.156 to 0.31 µM |
